Read-outs that look alike come from different tables or passages of the source.
Tests used:
sea lice [1] = assay: Field trial: medicated feed before sea transfer, recapture of tagged fish, sea lice infection (Example 3); type: in vivo, wild sea trout (Salmo trutta); conditions: about 3 mg per fish per day for six days in feed before sea transfer; 13 treated fish caught June 20 to August 7
Procedure: About 2,000 wild sea trout (Salmo trutta) were divided into two groups and marked with Carlin tags in two different colours (yellow or red) so that individuals of the groups could easily be distinguished from each other when observed in the water. The group with yellow Carlin tags were given feed containing hexaflumuron. The dose was about 3 mg of hexaflumuron per fish per day for six days. The feeding was done the last week before they were transferred to the sea in the beginning of May. The control group had red Carlin tags and was fed ordinary fish feed until sea transfer. Both groups of fish were transferred to the sea 200 metres from the river mouth of the Bondhus River in Hordaland in Norway. From sea transfer (May 8) until August 7, neighbouring rivers and estuaries round these rivers were examined every week, using fishing by application of high voltage and net fishing.
Tagged fish was not caught until June 20. From June 20 to August 7, 22 control fish and 13 treated fish were caught. The untreated fish were caught in the lower parts of the rivers and were heavily infected with sea lice. The 13 treated fish were exclusively caught in the estuary around the rivers (in sea water), none were caught in freshwater.

[2] = Chemical analysis of muscle/skin tissue after oral treatment (Example 6); type: in vivo, Atlantic salmon (Salmo salar); conditions: atlantic salmon, 5.6 mg/kg, five fish, read-out: average concentration of hexaflumuron in muscle/skin tissue
Procedure: Two days after oral treatment had been completed and at timepoint 3 (65 days after completed medication), muscle/skin tissue from five fish in group 1 was chemically analysed to check the concentration of hexaflumuron. The average concentration of hexaflumuron two days after completed medication was 4.4 µg/g tissue. 65 days after, the average concentration level was 1.2 µg/g tissue.

[3] = Chemical analysis of muscle with skin after injection (Example 7); type: in vivo, salmon (Salmo salar); conditions: fish, 50 mg/kg; for concentration at 8280 h: T11, 345 days after injection, read-out: muscle/skin concentration of hexaflumuron
Procedure: Tissue samples (muscle with skin) for chemical analysis were collected from three fish at each sample point in time throughout the entire trial period in order to monitor the concentrations of hexaflumuron. At sea water transfer, the muscle/skin concentrations were between 2 and 3 µg hexaflumuron per g of tissue. […] At T8, i.e. 238 days after vaccination, the concentration of hexaflumuron varied between 0.49 and 0.53 µg per g of tissue. At T11, i.e. 345 days after injection (322 days after sea water transfer) the muscle/skin concentration of hexaflumuron in the two groups was 0.13 and 0.11 µg/g tissue, respectively. At the same point in time, different stages of sea lice had become established on these fish.

sea lice [4] = assay: Injection of hexaflumuron in furunculosis vaccine formulations, sea lice counts after sea water transfer (Example 7); type: in vivo, salmon (Salmo salar); conditions: for average number of lice: control group 19.2
Procedure: The treatment dosage was 9 mg hexaflumuron per kg fish per day for 10 days. This is indicated by "Groups/Timepoints" in the figure; • Figure 2 relates to the trial in Example 2 that was carried out on Atlantic salmon (Salmo salar). […] The treatment dosage varied between 3 - 9 mg hexaflumuron and 9- 12 mg fluazuron per kg fish per day for 7 days. This is indicated by "Groups/Timepoints" in the diagram. […] The treated groups are compared to an untreated control group. The treatment dosage was 4 mg hexaflumuron per kg fish per day for 5 days. This is indicated by "Groups/Timepoints" in the figure. Cage 2 = controls, Cage 4-6 = treated groups, 16.6.97 = time point for sea transfer and 5.8.97= controls treated by bathing with deltamethrin; • Figure 4 relates to the trial described in Example 5, which was carried out on sea trout (Salmo trutta). […] The treated groups are compared with an untreated control group. The dosage for oral treatment was 4 mg hexaflumuron per kilo fish per day for 5 days, and 5 ppm hexaflumuron as a 30 minute bath treatment. This is indicated by "Groups/Timepoints" in the figure. Cage 1.4 = Controls, cage 1.3 = Oral treatment, cage 1.2 = Bath treatment. […] The treated groups are compared with an untreated control group, and one group that has been treated orally with teflubenzuron (10 mg/kg of teflubenzuron per kg fish per day for 7 days). The dosage for oral treatment was 5.6 mg hexaflumuron per kg fish per day for 7 days, and 5 ppm hexaflumuron as a 30 minute bath treatment. […] End of treatment: 22.10.97, Sea transfer: 23.10.97. T1 = 3 weeks post end of treatment, T2 = 5 weeks post end of treatment, T3 = 9 weeks post end of treatment, T4 = 12 weeks post end of treatment; • Figure 6 relates to the trial in Example 6 at time points 4-6, with the same trial parameters as for Figure 5. T5 = 15 weeks post end of treatment, T6 = 17 weeks post end of treatment. Cage 3 and 4 were treated by bath with deltamethrin after sea lice counting at T4 (12.01.98); • Figure 7 relates to the trial described in Example 7 where salmon were injected on 17.12.97 with two formulations (groups L and R, respectively) of hexaflumuron and a vaccine formulation without hexaflumuron (control). […] The vaccinated fish was transferred to sea water on 09.01.98; • Figure 8 summarises the trial of Example 8 where salmon smolts were injected with 9 different active substances on 08.07.98. Only results for Moxidectin (Mox.), Lufenuron (Luf.) and hexaflumuron in Apoject 1-Fural (Hex.Apo) and in animal oil (Hex.oil) are shown, and • Figure 9 summarises the trial described in Example 10 where salmon were injected on 03.12.97 with 3 different formulations of hexaflumuron (Hexa 1, Hexa 2 and Hexa 3). The fish were transferred to sea water at T0.
About 80 salmon (Salmo salar) at an average weight of about 80 grams were divided into two groups and injected with two different formulations of hexaflumuron at a dosage of about 50 mg/kg. Both formulations were prepared based upon a vaccine against furunculosis containing inactivated cells of Aeromonas salmonicida subsp. salmonicida. Hexaflumuron was mixed/formulated into the vaccine in two different manners to study the effect of the formulation on the depot effect in the fish and on the stability characteristics of the vaccine emulsions.
The fish were dosed (injected) while they were in freshwater and 23 days after the administration they were transferred to sea water (mini-cages). In parallel with the two groups, a third group comprising 40 fish of the same origin and size was vaccinated with a conventional vaccine without hexaflumuron. This group was kept in the same tank (freshwater) and cage (sea water) as the "hexaflumuron injected" groups and served as negative control/reference group in respect of sea lice infestations. Prior to the start of the trial, the groups were marked by fin cutting. The water temperature varied between 3.8 and 16.0°C throughout the trial. […]

SMILES: O=C(NC(=O)c1c(F)cccc1F)Nc1cc(Cl)c(OC(F)(F)C(F)F)c(Cl)c1 [hexaflumuron]
- signs of sea lice infections in recaptured fish (sea lice [1]): None of the treated fish showed signs of sea lice infections
- concentration at 1560 h ([2]; 65 days after completed oral medication): 1200 ng/g
- concentration at 48 h ([2]; two days after completed oral medication (5.6 mg per kg, 7 days)): 4400 ng/g
- concentration at 5712 h ([3]; T8, 238 days after vaccination, read-out: concentration of hexaflumuron in muscle/skin): 490 to 530 ng/g
- concentration at 8280 h ([3]; first-named group): 130 ng/g
- concentration at 8280 h ([3]; second-named group): 110 ng/g
- concentration at 552 h ([3]; at sea water transfer (23 days after injection of about 50 mg/kg), read-out: muscle/skin concentrations): 2000 to 3000 ng/g
- average number of lice (sea lice [4]; T8, first-named treated group (formulation)): 4.8
- average number of lice (sea lice [4]; T8, second-named treated group (formulation)): 1.8
- number of sea lice versus control group (sea lice [4]; T9 and T10, treated groups): significant differences
- number of lice versus control group (sea lice [4]; T11, after ALPHA MAX bath of all groups): significantly less lice
- excellent protection against sea lice infestation after sea water transfer (sea lice [4]; injection about 50 mg/kg): 7 months
- partially protective effect after sea water transfer (sea lice [4]; injection about 50 mg/kg): ≤ 10.5 months
- time after sea water transfer until sea lice were first recorded (T8) (sea lice [4]; injection about 50 mg/kg, two treated groups, control had lice from T5 (126 days)): 215 days

Reference: patent EP1306084A1, “Compositions for the control of parasitic infestations in fish” (Alpharma AS, priority 1998, dated 1999)
